Measurements as given in patent US20190262453A1, “DESIGN AND COMPOSITION OF CELL-STABILIZED PHARMACEUTICAL FORMULATIONS” (THE REGENTS OF THE UNIVERSITY OF MICHIGAN, priority 2016, published 2019).
“And” between values parts separate entries of the source, which are not always exact repeats. Equal entries are not always repeated.

System: RAW264.7 cells
Experiment: Cell viability (XTT assay)
Type: cell-based
Details: not given
Description: Cell Viability. Viability of RAW264.7 cells were performed using Cell Proliferation Kit II (XTT) (Roche Applied Science, Mannheim, Germany, Cat. No. 11465015001) using the manufacturer's instructions. […] Post 24 hours exposure to CFZ, the cells were incubated with the yellow XTT solution (final concentration 0.3 mg/ml) for 4 h. […] An increase in number of living cells directly correlates to the amount of orange formazan formed, as monitored by the solution absorbance at 500 nm (Abs500). The following formula was used to determine viability of drug and inhibitor treated cells using untreated cells (blank) as a control—Cell Viability=(Abs500, treated—Abs700,treated)/(Abs500, blank—Abs700,blank).

Row | Molecule | effect on cell viability
1 | O=C(O)c1cc([N+](=O)[O-])ccc1NCCCc1ccccc1 [NPPB] | no significant effect

Same assay, conditions: BafA1 alone at 6 nM, n=6

Row | Molecule | cell viability [%]
2 | CO/C1=C\C(C)=C\[C@@H](C)[C@@H](O)[C@@H](C)C/C(C)=C/C=C/[C@H](OC)[C@@H]([C@@H](C)[C@@H](O)[C@H](C)[C@@]2(O)C[C@@H](O)[C@H](C)[C@@H](C(C)C)O2)OC1=O [BafA1, bafilomycin A1] | 65±25

Same assay, conditions: BafA1 alone at 8 nM, n=6

Row | Molecule | cell viability [%]
3 | CO/C1=C\C(C)=C\[C@@H](C)[C@@H](O)[C@@H](C)C/C(C)=C/C=C/[C@H](OC)[C@@H]([C@@H](C)[C@@H](O)[C@H](C)[C@@]2(O)C[C@@H](O)[C@H](C)[C@@H](C(C)C)O2)OC1=O [BafA1, bafilomycin A1] | 33±6

System: not given
Experiment: not given
Details: in vivo; cited from earlier work

Row | Molecule | Vd
4 | COc1cc2nc(N(C)CCCNC(=O)C3CCCO3)nc(N)c2cc1OC (stereo not drawn) [Alfuzosin] | 3.2 L/kg
5 | O=C1CCc2ccc(OCCCCN3CCN(c4cccc(Cl)c4Cl)CC3)cc2N1 [Aripiprazole] | 4.9 L/kg
6 | CC[C@H]1OC(=O)[C@H](C)[C@@H](O[C@H]2C[C@@](C)(OC)[C@@H](O)[C@H](C)O2)[C@H](C)[C@@H](O[C@@H]2O[C@H](C)C[C@H](N(C)C)[C@H]2O)[C@](C)(O)C[C@@H](C)CN(C)[C@H](C)[C@@H](O)[C@]1(C)O [Azithromycin] | 31 L/kg
7 | CC(NC(C)(C)C)C(=O)c1cccc(Cl)c1 (stereo not drawn) [Bupropion] | 18.6 L/kg
8 | O=C1CC2(CCCC2)CC(=O)N1CCCCN1CCN(c2ncccn2)CC1 [Buspirone] | 5.3 L/kg
9 | CCCCCOC(=O)Nc1nc(=O)n([C@@H]2O[C@H](C)[C@@H](O)[C@H]2O)cc1F [Capecitabine] | 27.27 L/kg
10 | Cc1ccc(-c2cc(C(F)(F)F)nn2-c2ccc(S(N)(=O)=O)cc2)cc1 [Celecoxib] | 6.12 L/kg
11 | CCN(CC)CCCC(C)Nc1ccnc2cc(Cl)ccc12 (stereo not drawn) [Chloroquine] | 196.5 L/kg
12 | CN(C)CCC(c1ccc(Cl)cc1)c1ccccn1 (stereo not drawn) [Chlorpheniramine] | 3.2 L/kg
13 | CN(C)CCCN1c2ccccc2Sc2ccc(Cl)cc21 [Chlorpromazine] | 21 L/kg
14 | C[C@@H](NCCCc1cccc(C(F)(F)F)c1)c1cccc2ccccc12 [Cinacalcet] | 17.6 L/kg
15 | O=C1CN=C(c2ccccc2Cl)c2cc([N+](=O)[O-])ccc2N1 [Clonazepam] | 3.2 L/kg
16 | CN1CCN(C2=Nc3cc(Cl)ccc3Nc3ccccc32)CC1 [Clozapine] | 5.4 L/kg
17 | CN(C)CC(c1ccc(O)cc1)C1(O)CCCCC1 (stereo not drawn) [Desvenlafaxine] | 7.5 L/kg
18 | COc1ccc([C@@H]2Sc3ccccc3N(CCN(C)C)C(=O)[C@@H]2OC(C)=O)cc1 [Diltiazem] | 3.3 L/kg
19 | CC(=O)O[C@@]12CO[C@@H]1C[C@H](O)[C@@]1(C)C(=O)[C@H](O)C3=C(C)[C@@H](OC(=O)[C@H](O)[C@@H](NC(=O)OC(C)(C)C)c4ccccc4)C[C@@](O)([C@@H](OC(=O)c4ccccc4)[C@H]21)C3(C)C [Docetaxel] | 7.27 L/kg
20 | CN(C)CCC=C1c2ccccc2COc2ccccc21 [Doxepin] | 24 L/kg
21 | COc1cccc2c1C(=O)c1c(O)c3c(c(O)c1C2=O)C[C@@](O)(C(=O)CO)C[C@@H]3O[C@H]1C[C@H](N)[C@H](O)[C@H](C)O1 [Doxorubicin] | 682 L/kg
22 | CCCCCc1cc(O)c2c(c1)OC(C)(C)[C@@H]1CCC(C)=C[C@@H]21 [Dronabinol] | 8.9 L/kg
23 | CNCC[C@H](Oc1cccc2ccccc12)c1cccs1 [Duloxetine] | 7 L/kg
24 | Nc1nc(=O)n([C@@H]2CS[C@H](CO)O2)cc1F [Emtricitabine] | 3.5 L/kg
25 | O=C(NCC1CCCCN1)c1cc(OCC(F)(F)F)ccc1OCC(F)(F)F (stereo not drawn) [Flecainide] | 4.9 L/kg

Row | Molecule | Vd
26 | CNCCC(Oc1ccc(C(F)(F)F)cc1)c1ccccc1 (stereo not drawn) [Fluoxetine] | 35 L/kg
27 | OCCN1CCN(CCCN2c3ccccc3Sc3ccc(C(F)(F)F)cc32)CC1 [Fluphenazine] | 11 L/kg
28 | C[C@]12CC[C@@H]3c4ccc(O)cc4C[C@@H](CCCCCCCCC[S+]([O-])CCCC(F)(F)C(F)(F)F)[C@H]3[C@@H]1CC[C@@H]2O (stereo partly drawn) [Fulvestrant] | 4.15 L/kg
29 | O=C(CCCN1CCC(O)(c2ccc(Cl)cc2)CC1)c1ccc(F)cc1 [Haloperidol] | 18 L/kg
30 | CCN(CCO)CCCC(C)Nc1ccnc2cc(Cl)ccc12 (stereo not drawn) [Hydroxychloroquine] | 525 L/kg
31 | OCCOCCN1CCN(C(c2ccccc2)c2ccc(Cl)cc2)CC1 (stereo not drawn) [Hydroxyzine] | 19 L/kg and 16 L/kg
32 | CCCCCN(C)CCC(O)(P(=O)(O)O)P(=O)(O)O [Ibandronate] | 5.8 L/kg
33 | CC(=O)[C@]1(O)Cc2c(O)c3c(c(O)c2[C@@H](O[C@H]2C[C@H](N)[C@H](O)[C@H](C)O2)C1)C(=O)c1ccccc1C3=O [Idarubicin] | 24.7 L/kg
34 | CC1=C(/C=C/C(C)=C/C=C/C(C)=C\C(=O)O)C(C)(C)CCC1 [Isotretinoin] | 5 L/kg
35 | CCC(C)n1ncn(-c2ccc(N3CCN(c4ccc(OCC5COC(Cn6cncn6)(c6ccc(Cl)cc6Cl)O5)cc4)CC3)cc2)c1=O (stereo not drawn) [Itraconazole] | 10.7 L/kg
36 | OC(c1cc(C(F)(F)F)nc2c(C(F)(F)F)cccc12)C1CCCCN1 (stereo not drawn) [Mefloquine] | 19 L/kg
37 | CC12CC3CC(C)(C1)CC(N)(C3)C2 [Memantine] | 10.9 L/kg
38 | CCOC(=O)C1(c2ccccc2)CCN(C)CC1 [Meperidine] | 4.4 L/kg
39 | CCN(CC)CCNC(=O)c1cc(Cl)c(N)cc1OC [Metoclopramide] | 3.4 L/kg
40 | COCCc1ccc(OCC(O)CNC(C)C)cc1 (stereo not drawn) [Metoprolol] | 4.2 L/kg
41 | CN1CCN2c3ncccc3Cc3ccccc3C2C1 (stereo not drawn) [Mirtazapine] | 4.5 L/kg
42 | O=C1c2c(O)ccc(O)c2C(=O)c2c(NCCNCCO)ccc(NCCNCCO)c21 [Mitoxantrone] | 90 L/kg
43 | COc1c(C)c2c(c(O)c1C/C=C(\C)CCC(=O)O)C(=O)OC2 [Mycophenolate] | 3.8 L/kg
44 | Cc1cn(-c2cc(NC(=O)c3ccc(C)c(Nc4nccc(-c5cccnc5)n4)c3)cc(C(F)(F)F)c2)cn1 [Nilotinib] | 3.0 L/kg
45 | O=[N+]([O-])OCC(CO[N+](=O)[O-])O[N+](=O)[O-] [Nitroglycerin] | 3.3 L/kg
46 | CNCCC=C1c2ccccc2CCc2ccccc21 [Nortriptyline] | 18 L/kg
47 | Cc1nc2n(c(=O)c1CCN1CCC(c3noc4cc(F)ccc34)CC1)CCCC2O (stereo not drawn) [Paliperidone] | 9.1 L/kg

Row | Molecule | Vd
48 | Fc1ccc([C@@H]2CCNC[C@H]2COc2ccc3c(c2)OCO3)cc1 [Paroxetine] | 17 L/kg
49 | CC[C@@H]([C@H](C)O)n1ncn(-c2ccc(N3CCN(c4ccc(OC[C@@H]5CO[C@@](Cn6cncn6)(c6ccc(F)cc6F)C5)cc4)CC3)cc2)c1=O [Posaconazole] | 11.9 L/kg
50 | CCCN[C@H]1CCc2nc(N)sc2C1 [Pramipexole] | 7.3 L/kg
51 | O=C(C1CCCCC1)N1CC(=O)N2CCc3ccccc3C2C1 (stereo not drawn) [Praziquantel] | 9.55 L/kg
52 | CC(CN1c2ccccc2Sc2ccccc21)N(C)C (stereo not drawn) [Promethazine] | 13.4 L/kg
53 | CC(C)NCC(O)COc1cccc2ccccc12 (stereo not drawn) [Propranolol] | 4.3 L/kg
54 | OCCOCCN1CCN(C2=Nc3ccccc3Sc3ccccc32)CC1 [Quetiapine] | 10 L/kg
55 | O=C(c1ccc(OCCN2CCCCC2)cc1)c1c(-c2ccc(O)cc2)sc2cc(O)ccc12 [Raloxifene] | 2348 L/kg
56 | CCCN(CCC)CCc1cccc2c1CC(=O)N2 [Ropinirole] | 7.5 L/kg
57 | CO[C@H]1C[C@@H]2CC[C@@H](C)[C@@](O)(O2)C(=O)C(=O)N2CCCC[C@H]2C(=O)O[C@H]([C@H](C)C[C@@H]2CC[C@@H](O)[C@H](OC)C2)CC(=O)[C@H](C)/C=C(\C)[C@@H](O)[C@@H](OC)C(=O)[C@H](C)C[C@H](C)/C=C/C=C/C=C/1C [Sirolimus] | 12 L/kg
58 | O=C(O[C@H]1CN2CCC1CC2)N1CCc2ccccc2[C@@H]1c1ccccc1 [Solifenacin] | 671 L/kg
59 | CC(=O)S[C@@H]1CC2=CC(=O)CC[C@]2(C)[C@H]2CC[C@@]3(C)[C@@H](CC[C@@]34CCC(=O)O4)[C@H]12 [Spironolactone] | 10 L/kg
60 | CCN(CC)CCNC(=O)c1c(C)[nH]c(/C=C2\C(=O)Nc3ccc(F)cc32)c1C [Sunitinib] | 4 L/kg
61 | CC/C(=C(\c1ccccc1)c1ccc(OCCN(C)C)cc1)c1ccccc1 [Tamoxifen] | 55 L/kg
62 | CO[C@H]1C[C@@H]2CC[C@@H](C)[C@@](O)(O2)C(=O)C(=O)N2CCCC[C@H]2C(=O)O[C@H]([C@H](C)C[C@@H]2CC[C@@H](OC(=O)C(C)(CO)CO)[C@H](OC)C2)CC(=O)[C@H](C)/C=C(\C)[C@@H](O)[C@@H](OC)C(=O)[C@H](C)C[C@H](C)/C=C/C=C/C=C/1C [Temsirolimus] | 3.3 L/kg
63 | CN(C)c1cc(NC(=O)CNC(C)(C)C)c(O)c2c1C[C@H]1C[C@H]3[C@H](N(C)C)C(O)=C(C(N)=O)C(=O)[C@@]3(O)C(O)=C1C2=O [Tigecycline] | 7.2 L/kg
64 | CN(C)CCOc1ccc(/C(=C(/CCCl)c2ccccc2)c2ccccc2)cc1 [Toremifene] | 48.38 L/kg
65 | Nc1nc(N)c2nc(-c3ccccc3)c(N)nc2n1 [Triameterene] | 13.4 L/kg
66 | c1cnc2cc3c(cc2n1)[C@@H]1CNC[C@H]3C1 [Varenicline] | 6.2 L/kg
67 | CC[C@]1(O)C[C@H]2CN(CCc3c([nH]c4ccccc34)[C@@](C(=O)OC)(c3cc4c(cc3OC)N(C=O)[C@H]3[C@@](O)(C(=O)OC)[C@H](OC(C)=O)[C@]5(CC)C=CCN6CC[C@]43[C@@H]65)C2)C1 [Vincristine] | 9.79 L/kg
68 | CCC1=C[C@@H]2CN(C1)Cc1c([nH]c3ccccc13)[C@@](C(=O)OC)(c1cc3c(cc1OC)N(C)[C@H]1[C@@](O)(C(=O)OC)[C@H](OC(C)=O)[C@]4(CC)C=CCN5CC[C@]31[C@@H]54)C2 [Vinorelbine] | 76 L/kg
69 | Ivermectin | 9.91 L/kg
